Data set [1] in a line: In vivo pharmacokinetics in white-finned broiler chickens. The following applies: Chinese white-finned broiler, po, i.g., 36 mg/kg. An excerpt: The experimental procedures were reviewed and approved by the Institutional Animal Care and Use Committee of Hebei Agricultural University and carried out in accordance with the Guidelines for the Care and Use of Laboratory Animals of China. In this study, 12 healthy 30 days old Chinese white-finned broilers were used for the trial. All broilers were reared from 1 day of age and were provided with adequate basal diets and water, which were formulated to meet or exceed the nutritional requirements of broilers. Room temperature was maintained at 35°C for the first 3 days, then decreased to 28–30°C for the next 2 weeks and 25°C for the rest of the period. Broilers were randomly divided into two treatment groups (six broilers per treatment, n = 6) before the experiment, fasted for 18 h, and watered ad libitum. The experiment was administered by instillation, and blood was collected under the wings during the experiment according to the time designed for the experiment, and the plasma was centrifuged and separated for storage in a refrigerator at −20°C for processing and analysis. At the end of the experiment, broilers were euthanized.
The Waters Acquity UPLC H-Class system (Waters, Milford, MA, USA) includes a four-stage solvent manager, an autosampler set at 4°C and a Waters Acquity UPLC Shield RP18 column (100 × 2.1 mm, 1.7 μm, Waters. Milford, MA, USA). The mobile phase was methanol-0.1% phosphate (72:28, v/v). Detection was performed by a photodiode array detector at 373 nm at a flow rate of 0.2 mL/min. This assay was developed for the determination of QR in blood plasma.
A 200μL aliquot of plasma was sequentially added 20μL of 40μg/mL kaempferol internal standard, 100 μL of 25% HCL and 2 mL of ethyl acetate vortexed for 2 min equally. This mixture was centrifuged at 5000 rpm for 10 min, and the supernatant was transferred into a centrifuge tube and then concentrated to dryness under nitrogen. The analytes were dissolved in 200 μL of methanol/0.1% phosphoric acid water (4:1, v/v).
White-finned broilers were randomly divided into two experimental groups, one for the QR solution group and the other for the CA-g-CS/QR group, with six replicates in each group. The CA-g-CS/QR solution and the original QR solution were prepared and administered to the chickens at a dose of 36 mg/kg, and blood was collected under the wings at 15, 30, 60, 120, 240, 360, 480, 720, 1440, and 2160 min after the administration, placed in sodium heparin anticoagulation tubes and centrifuged to separate the plasma.
Pharmacokinetic parameters were estimated by blood concentration-time curves from Phoenix WinNonlin software. The […] was used to calculate the terminal elimination half-life (t1/2, λz), the area under the blood concentration-time curve (AUC0 − t), terminal feed time (AUC0−∞), total clearance (CL), and volume of distribution (Vd, λz). The peak blood concentration (Cmax) and time to peak (Tmax) were read directly from the observed individual blood concentration-time data. For instillation administration, the relative bioavailability (F) was calculated using the AUC0−∞ of CA-g-CS/QR versus QR.

In data set [2] the test system is Escherichia coli CMCC44102. In words: MIC and MBC, micro broth twofold dilution. Type of data set: cell-based. The procedure: (§1) We selected Escherichia coli CMCC44102 and Escherichia coli of chicken origin as experimental strains to determine their Minimum Inhibitory Concentration (MIC) and Minimum Bactericidal Concentration (MBC). The culture medium was configured and autoclaved, and the bacteria were cultured. The bacterial broth of the logarithmic growth period was diluted by micro broth twofold dilution method, 100 μL broth was added to each well of a sterile 96-well plate, and then 100 μL of prepared drug solution was added to the first well respectively, mixed well, and then diluted in multiples until the last well was mixed and 100 μL of the mixture was discarded. Each well was added with 100 μL of the prepared bacterial diluent, and a positive control (with bacteria and no drug) and a negative control (without bacteria and no drug) were set up. […] The tritriazolium chloride (TTC) method was used to determine the MIC results. 5 g/L TTC was added to each well of the 96-well plate after incubation for 1 h at 37°C, and the MIC was determined as the lowest antibacterial drug concentration in the wells with bacterial growth and the wells without bacterial growth. 100 μL of the liquid from each well clarified in the above test group was spread on solid, and the lowest drug concentration for no colony growth was its MBC. Agar plate experiments were also performed using the Oxford cup method, using CA-g-CS/QR with QR aqueous solution and maintaining the same concentration, sterile water group and CA-g-CS group were set, and three parallel experiments were performed to further confirm the antibacterial activity of the compounds.

The test system of data set [3] is Escherichia coli of chicken origin. In words: MIC and MBC, micro broth twofold dilution. Type of data set: cell-based. The protocol: as §1
A short description of data set [4]: Stability of QR in white broiler plasma. Type of data set: in vitro ADME. The protocol:
Precision and accuracy were assessed by running the standards (n = 6) for 1 day and three consecutive days for three levels of concentration (10.0, 100.0, and 500.0 ng/ml) at low, medium, and high. The stability of QR in the samples was also investigated by sampling and analyzing the three levels of spiked plasma at −20°C for 1 week and 4°C for 24 h.

For data set [5] the following is noted: rats; cited from earlier work.
Data set [6] is described as follows: Particle size and morphology by transmission electron microscopy. Type of data set: physicochemical. From the text:
We evaluated the successful preparation of CA-g-CS by UV absorption and IR detection of CS, CA, and CA-g-CS and compared the solubility of CS as well as CA-g-CS in water. The morphology of CA-g-CS/QR and QR was characterized by transmission electron microscopy. CA-g-CS/QR and QR were dropped on clean copper grids, negatively stained with 2% phosphotungstic acid solution, and the water was evaporated in the air at room temperature. The samples were dried and placed under transmission electron microscopy to observe the morphology.

Where [7] appears, read: no colony growth on solid medium.

Bounds are passed on as bounds.

Consider `O=c1c(O)c(-c2ccc(O)c(O)c2)oc2cc(O)cc(O)c12` [QR, Quercetin], for which, in data set [1] (n = 6), the total exposure AUC(0-inf) (commonly total exposure, with the tail of the curve extrapolated) is 2840 ng·h/mL; the AUC(0-t) – broadly, the area under the concentration-time curve up to a stated or last time point – was 2760 ng·h/mL; the CL/F (commonly clearance divided by bioavailability, as obtained after extravascular dosing) was found to be 219 ± 44.1 mL/min/kg; the concentration peaked (Cmax) at 278 ± 18.5 ng/mL. Besides, the time to peak (Tmax) (as a rule, the time at which the peak concentration occurs) in data set [1] (n = 6) was 2 h. The half-life in data set [1] (n = 6, read-out: T1/2, λz) was 6.98 ± 0.704 h. Further, the Vd/F in data set [1] (n = 6, read-out: Vd, λz/F) amounted to 132 ± 25.5 L/kg. For the same compound, the MIC (as a rule, the lowest concentration that inhibits growth of the organism) in data set [2] (24 h at 37°C, TTC method) is given as 0.013 mol/L. Further, the MBC – broadly, the smallest concentration meeting the test's criterion for killing – in data set [2] (setting [7]) is 0.026 mol/L. The compound also yielded an MIC in data set [3] (24 h at 37°C, TTC method) of 0.0585 mol/L. This compound also displayed an MBC in data set [3] (setting [7]) of 0.117 mol/L. In addition, in data set [4] (prepared plasma sample, 10 ng/mL, read-out: Remaining (%) in prepared plasma sample stored at 4°C for 24h), the amount remaining at 24 h, 10 ng/mL was 92.8 ± 2.94%. For the same compound, the share remaining at 24 h, 100 ng/mL in data set [4] (prepared plasma sample, 100 ng/mL, read-out: Remaining (%) in prepared plasma sample stored at 4°C for 24h) came to 97.2 ± 5.63%. Moreover, the fraction remaining at 24 h, 500 ng/mL in data set [4] (prepared plasma sample, 500 ng/mL, read-out: Remaining (%) in prepared plasma sample stored at 4°C for 24h) worked out at 99.98 ± 0.45%. Besides, the share remaining at 168 h, 10 ng/mL in data set [4] (spiked plasma, 10 ng/mL, read-out: Remaining (%) in plasma stored at −20°C for 7 days) was 96.6 ± 6.62%. The share remaining at 168 h, 100 ng/mL in data set [4] (spiked plasma, 100 ng/mL, read-out: Remaining (%) in plasma stored at −20°C for 7 days) turned out to be 103 ± 8.97%. In data set [4] (spiked plasma, 500 ng/mL, read-out: Remaining (%) in plasma stored at −20°C for 7 days), the fraction remaining at 168 h, 500 ng/mL was determined as 93.5 ± 1.78%. Further, the oral bioavailability in data set [5] was under 17%. Besides, the particle size in data set [6] amounted to 1.5 ± 0.1 μm.

The values above are taken from article PMC10354432, “Preparation of caffeic acid grafted chitosan self-assembled micelles to enhance oral bioavailability and antibacterial activity of quercetin” (Frontiers in Veterinary Science, 2023).
